Key:
[1] = test system: Influenza A virus; test: Antiviral activity against Influenza A virus (A/PR/8/1934(H1N1)) infected in MDCK cells assessed as 1-log10 reduction in viral RNA copy number after 24 hrs by quantitative RT-PCR analysis; format: functional, organism-based; conditions: A/Puerto Rico/8/1934(H1N1)
[2] = Cytotoxicity against MDCK cells assessed as cell viability measured at 24 hrs by MTS assay; format: cell-based, Canis lupus familiaris; conditions: dog
[3] = test system: Influenza A virus; test: Antiviral activity against Influenza A virus (A/PR/8/1934(H1N1)) infected in HEK293T cells assessed as reduction in viral RNP reconstitution measured at 24 hrs by luciferase reporter gene assay; format: functional, organism-based; conditions: A/Puerto Rico/8/1934(H1N1), HEK-293T
[4] = test system: Influenza A virus; test: Antiviral activity against Influenza A virus (A/PR/8/1934(H1N1)) infected in MDCK cells assessed as 2-log10 reduction in viral RNA copy number after 24 hrs by quantitative RT-PCR analysis; format: functional; conditions: A/Puerto Rico/8/1934(H1N1)
[5] = test system: Influenza A virus; test: Potency index, ratio of ribavirin EC90 to compound EC90 for Influenza A virus (A/PR/8/1934(H1N1)) infected in MDCK cells; format: functional, A/Puerto Rico/8/1934(H1N1)
[6] = Cytotoxicity against HEK293T cells assessed as cell viability measured at 24 hrs by MTS assay; format: cell-based, HEK-293T; conditions: human
[7] = target: Polymerase acidic protein (Influenza A virus (strain A/X-31 H3N2), UniProt Q9IQ47); test: Inhibition of recombinant Influenza virus A/X-31 N-terminal RdRp PA subunit (1 to 217) expressed in Escherichia coli using single-stranded circular DNA plasmid M13mp18 as substrate after 2 hrs by agarose gel electrophoresis; set-up: species or system Influenza A virus (A/X-31(H3N2))
[8] = test system: Influenza A virus; test: Potency index, ratio of ribavirin EC99 to compound EC99 for Influenza A virus (A/PR/8/1934(H1N1)) infected in MDCK cells; format: functional, A/Puerto Rico/8/1934(H1N1)

O=C(NCCc1ccc(O)c(O)c1)c1cc2cc(O)c(O)cc2[nH]1
EC50 [1]: 3.2 µM | CC50 at 24 h [2]: ≥ 50 µM | EC50 [3]: 16 µM | EC99 [4]: 5.7 µM | Ratio [5]: 2 | CC50 at 24 h [6]: 110 µM | IC50 [7]: 0.94 µM | Ratio [8]: 2

Cc1cc(=O)oc2n[nH]c(C)c12
IC50 [7]: > 500 µM

O=C(NCCCCNC(=O)c1cc2cc(O)c(O)cc2[nH]1)c1cc2cc(O)c(O)cc2[nH]1
EC50 [1]: 6.3 µM | CC50 at 24 h [2]: > 200 µM | EC50 [3]: 24 µM | EC99 [4]: 12 µM | CC50 at 24 h [6]: > 200 µM | IC50 [7]: 7 µM

NC(=O)c1ncn([C@@H]2O[C@H](CO)[C@@H](O)[C@H]2O)n1 [RIBAVIRIN]
CC50 at 24 h [2]: > 200 µM | EC50 [3]: 8.4 µM | EC99 [4]: 11 µM | CC50 at 24 h [6]: > 200 µM

Cc1cc(NC(=O)c2c(O)nc(O)[nH]c2=O)no1
IC50 [7]: > 500 µM

O=C(O)/C(O)=C/C(=O)C1(Cc2ccc(Cl)cc2)CCN(Cc2ccccc2)CC1
EC50 [1]: 5.4 µM | CC50 at 24 h [2]: 181 µM | EC50 [3]: 3.4 µM | EC99 [4]: 8.4 µM | CC50 at 24 h [6]: > 100 µM | IC50 [7]: 0.48 µM

CNC(=O)c1cccc(Nc2nc(O)nc(O)c2C#N)c1
IC50 [7]: > 500 µM

O=C(O)CCc1nnc(SCc2ccc(Cl)cc2)nc1O
IC50 [7]: > 500 µM

Cc1nc(SCc2ccccc2)nc(O)c1CC(=O)O
IC50 [7]: > 500 µM

O=C(O)c1nccnc1C(=O)Nc1nc(-c2cccs2)n[nH]1
IC50 [7]: > 500 µM

COc1cc2nc(N3CCOCC3)nc(N)c2cc1OC
IC50 [7]: > 500 µM

O=C(NCCCNC(=O)c1cc2cc(O)c(O)cc2[nH]1)c1cc2ccccc2[nH]1
EC50 [1]: 32 µM | CC50 at 24 h [2]: > 200 µM | EC50 [3]: 64 µM | EC99 [4]: 73 µM | CC50 at 24 h [6]: > 200 µM | IC50 [7]: 65 µM

O=C(O)CCc1nn2c(nc1O)nc1ccccc12
IC50 [7]: > 500 µM

CCOC(=O)c1c(O)c2cc(OC)ccc2n(C)c1=O
IC50 [7]: > 500 µM

O=C(CC(=O)Nc1ccccc1)NNc1ccc([N+](=O)[O-])cc1
IC50 [7]: > 500 µM

O=C(O)C1C(C(=O)O)C(C(=O)O)C(C(=O)O)C(C(=O)O)C1C(=O)O (configuration not stated)
IC50 [7]: > 500 µM

O=C(O)CC1C(=O)NCCN1CCCc1ccccc1 (configuration not stated)
IC50 [7]: > 500 µM

— ChEMBL document CHEMBL3621162, “Virtual Screening and Biological Validation of Novel Influenza Virus PA Endonuclease Inhibitors” (ACS Med Chem Lett, 2015)
